Assays:
bamyardgrass = test: Test B flood test barnyardgrass; assay type: in vivo, Echinochloa crus-galli
Procedure, shortened: (§1)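 Each value is a visual injury score relative to controls, with 10 meaning complete control and 0 no effect. Evaluation took place twelve to sixteen days after the 2-leaf-stage plants were treated and kept in the greenhouse.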

giant foxtail = test: Test B pre/postemergence giant foxtail; assay type: in vivo, Setaria faberii
Procedure, shortened: (§2)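 Response is a visual 0-to-10 score relative to untreated plants, where 0 means no effect and 10 means complete control, taken twelve to sixteen days after application. Treatments went onto soil at planting and onto foliage of 1- to 4-leaf plants, using a surfactant-containing non-phytotoxic solvent.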

duck salad = test: Test B flood test duck salad; assay type: in vivo, Heteranthera limosa
Procedure, shortened: as §1

morningglory = test: Test B pre/postemergence morningglory; assay type: in vivo, Ipomoea hederacea
Procedure, shortened: as §2

purple nutsedge = test: Test B pre/postemergence purple nutsedge; assay type: in vivo, Cyperus rotundus
Procedure, shortened: as §2

wild oat = test: Test B pre/postemergence wild oat; assay type: in vivo, Avena fatua
Procedure, shortened: as §2

blackgrass = test: Test B pre/postemergence blackgrass; assay type: in vivo, Alopecurus myosuroides
Procedure, shortened: as §2

pigweed = test: Test B pre/postemergence pigweed; assay type: in vivo, Amaranthus retroflexus
Procedure, shortened: as §2

soybean = test: Test B pre/postemergence soybean; assay type: in vivo, Glycine max
Procedure, shortened: as §2

rice = test: Test B flood test rice; assay type: in vivo, Oryza sativa
Procedure, shortened: as §1

smallflower flatsedge = test: Test B flood test smallflower flatsedge; assay type: in vivo, Cyperus difformis
Procedure, shortened: as §1

velvetleaf = test: Test B pre/postemergence velvetleaf; assay type: in vivo, Abutilon theophrasti
Procedure, shortened: as §2

cocklebur = test: Test B pre/postemergence cocklebur; assay type: in vivo, Xanthium strumarium
Procedure, shortened: as §2

rape = test: Test B pre/postemergence rape; assay type: in vivo, Brassica napus
Procedure, shortened: as §2

sugar beet = test: Test B pre/postemergence sugar beet; assay type: in vivo, Beta vulgaris
Procedure, shortened: as §2

wheat = test: Test B pre/postemergence wheat; assay type: in vivo, Triticum aestivum
Procedure, shortened: as §2

[1] = Rate 62 g/ha, headed Pre-emergence (flood test species), scale 0 to 10 (0 no effect, 10 complete control)
[2] = Rate 125 g/ha, Pre-emergence, flood test species, scale 0 to 10 where 0 is no effect and 10 is complete control
[3] = Rate 250 g/ha, Pre-emergence, flood-test species, scale 0 to 10, 0 is no effect, 10 is complete control
[4] = Rate 500 g/ha, Pre-emergence, flood test species, scale 0 to 10 (0 no effect, 10 complete control)
[5] = Preemergence, Rate 62 g/ha, scale of 0 to 10 where 0 is no effect and 10 is complete control
[6] = Preemergence, Rate 250 g/ha, scale of 0 to 10 where 0 is no effect and 10 is complete control
[7] = Preemergence, Rate 500 g/ha, scale of 0 to 10 where 0 is no effect and 10 is complete control
[8] = Rate 62 g/ha, Postemergence, scale of 0 to 10 where 0 is no effect and 10 is complete control
[9] = Rate 125 g/ha, Postemergence, scale 0 to 10
[10] = Rate 125 g/ha, Preemergence, scale of 0 to 10 where 0 is no effect and 10 is complete control
[11] = Rate 500 g/ha, Postemergence, scale 0 to 10, 0 no effect, 10 complete control

COc1cc(C)cc(C)c1-n1c(=O)on(C(=O)N(c2ccc(F)cc2)C(C)C)c1=O [Compound 222]
2: Soybean plant response rating (soybean; [8]) | Soybean plant response rating (soybean; [11]) | Plant response rating (0 to 10; 0 is no effect, 10 is complete control), Velvetleaf (velvetleaf; Rate 250 g/ha, Postemergence)
3: Plant response rating (0 to 10; 0 is no effect, 10 is complete control), Morningglory (morningglory; Rate 250 g/ha, Postemergence) | Morningglory plant response rating (morningglory; [11]) | Plant response rating (0 to 10; 0 is no effect, 10 is complete control), Blackgrass (blackgrass; Rate 250 g/ha, Postemergence) | Soybean plant response rating (soybean; [9]) | Plant response rating (0 to 10; 0 is no effect, 10 is complete control), Soybean (soybean; Rate 250 g/ha, Postemergence) | Plant response rating, Velvetleaf (velvetleaf; [7]) | Velvetleaf plant response rating (velvetleaf; [11])
7: Giant foxtail plant response rating (giant foxtail; [6])
0: Barnyardgrass plant response rating (bamyardgrass; [1]) | Barnyardgrass plant response rating (bamyardgrass; [2]) | Barnyardgrass plant response rating (bamyardgrass; [3]) | Barnyardgrass plant response rating (bamyardgrass; [4]) | Giant foxtail plant response rating (giant foxtail; [5]) | Giant foxtail plant response rating (giant foxtail; [8]) | Giant foxtail plant response rating (giant foxtail; [9]) | Plant response rating (0 to 10; 0 is no effect, 10 is complete control), Giant foxtail (giant foxtail; Rate 250 g/ha, Postemergence) | Ducksalad plant response rating (duck salad; [1]) | Ducksalad plant response rating (duck salad; [2]) | Ducksalad plant response rating (duck salad; [3]) | Ducksalad plant response rating (duck salad; [4]) | Morningglory plant response rating (morningglory; [5]) | Morningglory plant response rating (morningglory; [6]) | Plant response rating, Morningglory (morningglory; [7]) | Morningglory plant response rating (morningglory; [10]) | Nutsedge plant response rating (purple nutsedge; [6]) | Nutsedge plant response rating (purple nutsedge; [8]) | Nutsedge plant response rating (purple nutsedge; [9]) | Nutsedge plant response rating (purple nutsedge; [10]) | Plant response rating (0 to 10; 0 is no effect, 10 is complete control), Nutsedge (purple nutsedge; Rate 250 g/ha, Postemergence) | Wild oats plant response rating (wild oat; [5]) | Wild oats plant response rating (wild oat; [6]) | Wild oats plant response rating (wild oat; [8]) | Wild oats plant response rating (wild oat; [9]) | Wild oats plant response rating (wild oat; [10]) | Plant response rating (0 to 10; 0 is no effect, 10 is complete control), Wild oats (wild oat; Rate 250 g/ha, Postemergence) | Wild oats plant response rating (wild oat; [11]) | Blackgrass plant response rating (blackgrass; [5]) | Blackgrass plant response rating (blackgrass; [6]) | Plant response rating, Blackgrass (blackgrass; [7]) | Blackgrass plant response rating (blackgrass; [8]) | Blackgrass plant response rating (blackgrass; [9]) | Blackgrass plant response rating (blackgrass; [10]) | Redroot pigweed plant response rating (pigweed; [5]) | Redroot pigweed plant response rating (pigweed; [6]) | Redroot pigweed plant response rating (pigweed; [8]) | Redroot pigweed plant response rating (pigweed; [9]) | Redroot pigweed plant response rating (pigweed; [10]) | Plant response rating (0 to 10; 0 is no effect, 10 is complete control), Redroot pigweed (pigweed; Rate 250 g/ha, Postemergence) | Redroot pigweed plant response rating (pigweed; [11]) | Soybean plant response rating (soybean; [5]) | Soybean plant response rating (soybean; [6]) | Plant response rating, Soybean (soybean; [7]) | Soybean plant response rating (soybean; [10]) | Rice plant response rating (rice; [1]) | Rice plant response rating (rice; [2]) | Rice plant response rating (rice; [3]) | Rice plant response rating (rice; [4]) | S. Flatsedge plant response rating (smallflower flatsedge; [1]) | S. Flatsedge plant response rating (smallflower flatsedge; [2]) | S. Flatsedge plant response rating (smallflower flatsedge; [3]) | S. Flatsedge plant response rating (smallflower flatsedge; [4]) | Velvetleaf plant response rating (velvetleaf; [5]) | Velvetleaf plant response rating (velvetleaf; [6]) | Velvetleaf plant response rating (velvetleaf; [8]) | Velvetleaf plant response rating (velvetleaf; [9]) | Velvetleaf plant response rating (velvetleaf; [10]) | Cocklebur plant response rating (cocklebur; [5]) | Cocklebur plant response rating (cocklebur; [6]) | Cocklebur plant response rating (cocklebur; [8]) | Cocklebur plant response rating (cocklebur; [9]) | Cocklebur plant response rating (cocklebur; [10]) | Plant response rating (0 to 10; 0 is no effect, 10 is complete control), Cocklebur (cocklebur; Rate 250 g/ha, Postemergence) | Cocklebur plant response rating (cocklebur; [11]) | Rape plant response rating (rape; [5]) | Rape plant response rating (rape; [6]) | Plant response rating, Rape (rape; [7]) | Rape plant response rating (rape; [8]) | Rape plant response rating (rape; [9]) | Rape plant response rating (rape; [10]) | Plant response rating (0 to 10; 0 is no effect, 10 is complete control), Rape (rape; Rate 250 g/ha, Postemergence) | Rape plant response rating (rape; [11]) | Sugarbeets plant response rating (sugar beet; [5]) | Sugarbeets plant response rating (sugar beet; [6]) | Plant response rating, Sugarbeets (sugar beet; [7]) | Sugarbeets plant response rating (sugar beet; [8]) | Sugarbeets plant response rating (sugar beet; [9]) | Sugarbeets plant response rating (sugar beet; [10]) | Plant response rating (0 to 10; 0 is no effect, 10 is complete control), Sugarbeets (sugar beet; Rate 250 g/ha, Postemergence) | Sugarbeets plant response rating (sugar beet; [11]) | Wheat plant response rating (wheat; [5]) | Wheat plant response rating (wheat; [6]) | Plant response rating, Wheat (wheat; [7]) | Wheat plant response rating (wheat; [8]) | Wheat plant response rating (wheat; [9]) | Wheat plant response rating (wheat; [10]) | Plant response rating (0 to 10; 0 is no effect, 10 is complete control), Wheat (wheat; Rate 250 g/ha, Postemergence) | Wheat plant response rating (wheat; [11])
1: Giant foxtail plant response rating (giant foxtail; [11]) | Morningglory plant response rating (morningglory; [8]) | Morningglory plant response rating (morningglory; [9]) | Plant response rating, Wild oats (wild oat; [7])
9: Plant response rating, Giant foxtail (giant foxtail; [7])
4: Blackgrass plant response rating (blackgrass; [11]) | Plant response rating, Redroot pigweed (pigweed; [7])
5: Giant foxtail plant response rating (giant foxtail; [10])

From patent US6737383B1, “Herbicidal oxadiazolidines” (priority 1999, dated 2004)
